Results reported in patent publication US20240382564A1, “Methods and Compositions for Treating Muscular Dystrophy and Memory Impairment” (Allysta Pharmaceuticals, Inc., priority 2023, published 2024).
Where no end group is shown, it is not given here. [ ]: non-standard residue; d: D form. Nva = CCC[C@H](N)C(=O)O

Legend:
Format in all cases: in vivo, mouse
D2.mdx mice [1] = test: Fibrosis by Masson's trichrome staining of muscle sections after ALY688 treatment
Procedure: (§1) D2.mdx mice were treated with ALY688 at two different dosages; high dose (HD; 15 mg/kg body weight/day) or low dose (LD; 3 mg/kg body weight/day) dissolved in saline. A separate group of mice were treated with saline alone (VEH, vehicle). Treatment was provided via subscapular subcutaneous injections from 7 days of age to 28-30 days. […] At 28-30 days of age, mice were anaesthetized with isoflurane vaporized in medical air (21% oxygen) at a 2 L/min flow rate. Due to tissue limitations in limb muscle, certain measures were performed separately in tibialis anterior and quadriceps across several phases of breeding. […]
Samples collected were cut into 8 µm thick serial cross sections with a cryostat (Thermo Fisher Scientific; Kalamazoo, MI, United States;) maintained at −20° C. on Fisherbrand Superfrost Plus slides (Thermo Fisher Scientific). […] Centralized nuclei, a marker of regenerating fibres, was analyzed by selecting five evenly spaced images throughout the muscle and averaging the result. Areas of damage (fibres with fragmented sarcoplasm and immune cell infiltration) were expressed as a percentage of the entire muscle section. Images were taken using EVOS M7000 imager (Thermo Fisher Scientific) using 20× magnification and analyzed using ImageJ (http://imagej.nih.gov/ij/). […] These images were then analyzed with ImageJ for minimal Feret's diameter as an index of muscle atrophy.

D2.mdx mice [2] = test: In-situ quadriceps force
Procedure: as §1
Body temperature was maintained using an overhead heat lamp. […] Optimal resting length (L0) was determined using single twitches (pulse width=0.2 ms) at varying muscle lengths at the maximal stimulation current. Force was assessed across increasing frequencies (1, 40, 60, 80, 100, 120 Hz) using a biphasic stimulator (Model 710B, Aurora Scientific, Inc., ON, Canada), with one minute rest between each frequency. […] Recovery from fatigue was assessed 5, 10 and 15 minutes after the last contraction of the fatigue protocol at the frequency that elicited max force. Data were analyzed using Dynamic Muscle Control Data Acquisition software (Aurora Scientific, Inc) and normalized to quadriceps weight in mg.

D2.mdx mice [3] = test: Cardiac (RV, LV) mitochondrial H2O2 emission and ADP-stimulated respiration
Procedure: D2.mdx mice were treated daily subcutaneously beginning at 7 days of age for 3 weeks at 1 μL/g with ALY688 at 15 mg/kg body weight (high dose drug; HD) or with a saline (VEH) control. Mice were compared to age-matched wildtypes (DBA/2J). […] However, ADP-stimulated respiration supported by pyruvate was increased in VEH (36%) and HD (46%) vs wildtype whereas HD had no effect vs VEH.

D2.mdx mice [4] = test: Mitochondrial calcium retention capacity; conditions: between groups
Procedure: as §1
This assay was measured spectrofluorometrically (QuantaMaster 80, HORIBA Scientific) in a cuvette with 300 μL assay buffer containing 1 μM Calcium Green-5N (Invitrogen), 2 μM thapsigargin, 5 μM blebbistatin, and 40 μM EGTA while maintained at 37° C. with continuous stirring. 5 mM glutamate, 2 mM malate, 5 mM ADP and 20 mM creatine were added to the assay buffer and minimum fluorescence was recorded. 4 nmol pulses of CaCl2 were added until the mitochondrial permeability transition pore (mPTP) opening was observed as an increase in fluorescence corresponding to net mitochondrial calcium release, at which point saturating pulses of CaCl2 were used to establish maximum fluorescence. […]

[dN]IP[Nva]LY[dS]FA[dS]-NH2 [ALY688]
attenuation of diaphragm fibrosis (collagen content) (D2.mdx mice [1]; diaphragm, both doses (LD 3, HD 15 mg/kg/day s.c., 7 to 28-30 days of age)): 66.7-67.6%
partial prevention of fibrosis and atrophy in tibialis anterior (D2.mdx mice [1]; tibialis anterior): not observed
muscle force production (D2.mdx mice [2]; both doses): no effect
recovery from fatigue, change (D2.mdx mice [2]; low dose, printed range also covers diaphragm high dose): −5.3% to −50.9
ADP-stimulated respiration supported by pyruvate, HD vs VEH (D2.mdx mice [3]; LV): no effect
ADP-stimulated respiration supported by pyruvate, increase vs wildtype (D2.mdx mice [3]; LV, HD, VEH 36%): 46%
mH2O2 emissions supported by pyruvate (D2.mdx mice [3]; LV, between groups): not different between groups
ADP-stimulated respiration supported by pyruvate (D2.mdx mice [3]; RV, HD, VEH −49% vs wildtype): completely rescued
mH2O2 emission stimulated by pyruvate (D2.mdx mice [3]; RV, HD, range of [ADP], VEH +88% vs wildtype): did not change
mitochondrial calcium retention capacity (D2.mdx mice [4]): no differences between groups
